Experimental data from patent publication US5789403A, “Substituted thiazolo [3,2-a]azepine derivatives” (Eisai Co., Ltd., priority 1994, dated 1998).

Assays:
[1] = target: T1, NEP (neutral endpeptidase) (Rattus norvegicus, UniProt P07861); assay: NEP inhibiting activity with rat kidney cortex membrane fraction; format: biochemical; settings: substrate Benzoyl-Gly-Arg-Arg-2-naphthylamide, 540 nm
T1 construct: membrane fraction prepared from the kidney cortex of rat; from tissue; host or cells: rat kidney cortex membrane fraction
T1 sequence (P07861 1-750): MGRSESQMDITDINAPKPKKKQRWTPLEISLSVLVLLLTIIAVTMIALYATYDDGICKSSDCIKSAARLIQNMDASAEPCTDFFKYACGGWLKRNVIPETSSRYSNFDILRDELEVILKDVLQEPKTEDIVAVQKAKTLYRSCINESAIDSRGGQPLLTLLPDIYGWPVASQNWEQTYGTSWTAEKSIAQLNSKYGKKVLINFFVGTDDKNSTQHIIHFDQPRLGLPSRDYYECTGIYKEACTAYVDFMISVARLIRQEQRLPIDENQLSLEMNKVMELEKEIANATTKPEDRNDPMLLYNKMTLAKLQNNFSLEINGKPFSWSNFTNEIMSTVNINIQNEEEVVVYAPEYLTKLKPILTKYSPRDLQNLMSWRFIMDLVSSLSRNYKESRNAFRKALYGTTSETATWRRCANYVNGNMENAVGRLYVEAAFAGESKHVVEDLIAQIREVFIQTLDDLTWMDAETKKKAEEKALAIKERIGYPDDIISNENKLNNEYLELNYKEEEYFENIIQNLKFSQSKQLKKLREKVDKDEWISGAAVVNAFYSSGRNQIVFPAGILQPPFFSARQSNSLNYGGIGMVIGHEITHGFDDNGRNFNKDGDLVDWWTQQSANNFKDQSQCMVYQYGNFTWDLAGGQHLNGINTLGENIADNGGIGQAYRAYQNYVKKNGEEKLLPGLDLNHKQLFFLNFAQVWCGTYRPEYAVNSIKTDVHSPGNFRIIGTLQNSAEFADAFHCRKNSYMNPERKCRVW
Procedure: Determination of NEP inhibiting activities of medicaments with rat kidney cortex
NEP activity was determined with the membrane fraction prepared from the kidney cortex of rat according to the process of Booth and Kenny (A Rapid Method for the Purification of Microvilli from Rabbit Kidney., Andrew G. Booth and A. John Kenny, Biochem J., 1974, 142, 575-581).
The NEP activity was determined according to the process of Orlowsky and Wilk (Purification and Specificity of a Membrane-Bound Metalloendpeptidase from Bovine Pituitaries., Marian Orlowsky and Shrwin Wilk, Biochemistry, 1981, 20, 4942-4950.) by the following method.
Benzoyl-glycyl-arginyl-arginyl-2-naphthylamide (Benzoyl-Gly-Arg-Arg-2-napththylamide (Nova Biochem, Switzerland)) was used as substrate. The naphthylamine liberated in the presence of the NEP enzyme sample and excess of leucine aminopeptidase (Sigma Chemical Co., U.S.A.) was color-developed with […] (Sigma Chemical Co., U.S.A.) and the absorbance at a wavelength of 540 nm was determined.
The NEP inhibiting activity was determined by adding the test compound to the above experiment system in final concentrations of 1, 3, 10, 30, 100, 300 and 1000 nM to form an inhibition curve and determining the concentration at which 50% of the activity was inhibited as IC50. [4S-(4α,7α(R*), 12bβ]]-7-[(1-oxo-2(S)-thio-3-phenylpropyl)amino]-1,2,3,4,6,7,8,12b-octahydro-6-oxopyrido[2,1-a] [2] benzazepine-4-carboxylic acid (which is a compound disclosed in Japanese Patent Publication-A No. 4-282382) was used as the control compound.

[2] = target: T2, ACE (angiotensin I converting enzyme) (Rattus norvegicus, UniProt P47820); assay: ACE inhibiting activity with rat lung membrane fraction; format: biochemical; settings: substrate Hippuryl-His-Leu, borate buffer pH 8.3, 228 nm
T2 construct: membrane fraction prepared from the lung of rat; from tissue; host or cells: rat lung membrane fraction
T2 sequence (P47820 36-1313): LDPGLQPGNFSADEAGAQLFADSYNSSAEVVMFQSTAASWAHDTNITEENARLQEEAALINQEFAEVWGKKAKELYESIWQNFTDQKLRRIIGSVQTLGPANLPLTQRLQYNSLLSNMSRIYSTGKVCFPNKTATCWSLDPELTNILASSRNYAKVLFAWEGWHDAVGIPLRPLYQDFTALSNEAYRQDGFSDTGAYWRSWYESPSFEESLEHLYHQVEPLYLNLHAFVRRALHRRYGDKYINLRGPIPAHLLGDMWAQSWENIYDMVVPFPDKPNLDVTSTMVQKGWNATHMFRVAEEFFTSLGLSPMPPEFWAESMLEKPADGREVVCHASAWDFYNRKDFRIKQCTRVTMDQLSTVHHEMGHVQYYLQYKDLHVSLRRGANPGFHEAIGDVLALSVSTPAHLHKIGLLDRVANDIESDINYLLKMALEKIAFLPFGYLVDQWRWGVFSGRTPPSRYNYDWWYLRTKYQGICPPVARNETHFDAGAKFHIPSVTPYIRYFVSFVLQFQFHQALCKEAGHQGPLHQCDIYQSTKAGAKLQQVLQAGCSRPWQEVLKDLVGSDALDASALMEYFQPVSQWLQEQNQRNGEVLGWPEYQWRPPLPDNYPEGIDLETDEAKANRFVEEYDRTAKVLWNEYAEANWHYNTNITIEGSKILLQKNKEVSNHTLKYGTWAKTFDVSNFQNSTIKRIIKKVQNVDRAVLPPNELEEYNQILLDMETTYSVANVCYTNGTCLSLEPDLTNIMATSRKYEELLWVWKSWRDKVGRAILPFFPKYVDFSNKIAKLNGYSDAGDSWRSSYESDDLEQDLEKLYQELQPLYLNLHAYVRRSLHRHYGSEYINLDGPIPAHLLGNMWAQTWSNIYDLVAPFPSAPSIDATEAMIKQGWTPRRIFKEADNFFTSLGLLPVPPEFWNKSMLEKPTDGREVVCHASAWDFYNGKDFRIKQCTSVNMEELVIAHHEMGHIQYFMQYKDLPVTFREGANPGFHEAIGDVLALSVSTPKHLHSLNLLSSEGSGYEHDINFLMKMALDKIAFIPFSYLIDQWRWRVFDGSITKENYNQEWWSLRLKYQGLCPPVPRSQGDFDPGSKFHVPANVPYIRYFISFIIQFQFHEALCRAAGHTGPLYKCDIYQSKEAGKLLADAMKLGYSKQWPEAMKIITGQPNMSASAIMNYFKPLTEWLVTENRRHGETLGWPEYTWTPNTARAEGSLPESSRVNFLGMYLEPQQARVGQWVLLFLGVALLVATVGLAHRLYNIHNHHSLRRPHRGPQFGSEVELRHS
Procedure: Determination of ACE inhibiting activities of medicaments with rat lung
ACE inhibiting activity was examined with the membrane fraction prepared from the lung of rat according to the method of Wu-Wong et al. (Characterization of Endthelin Converting Enzyme in Rat Lung, Junshyum R. Wu-Wong, Gerald P. Budzik, Edward M. Devine and Terry J. Opgenorth, Biochem. Biophys. Res. Commun., 1990, 171, 1291-1296.).
The ACE activity was determined by a modification (wherein the pH of the borate buffer was changed to 8.3) of the Cushman-Cheung method (Spectrophotometric Assay and Properties of the Angiotensin-Converting Enzyme of Rabbit Lung., Cushman D. W. and Cheung H. S., 1971, 20, 1637-1648).
The hippurate liberated from Hippuryl-histidylleucine (Hippuryl-His-Leu (Peptidelnstitute lnc., Japan)) in the presence of ACE was extracted with ethyl acetate and the absorbance at a wavelength of 228 nm was determined.
The ACE inhibiting activity was determined by adding the test compound to the above experiment system in final concentrations of 1, 3, 10, 30, 100, 300 and 1000 nM to form an inhibition curve and determining the concentration at which 50% of the activity was inhibited as IC50. [4S-[4α,7α(R*),12bβ]]-7-[(1-oxo-2(S)-thio-3-phenylpropyl)amino]-1,2,3,4,6,7,8,12b-octahydro-6-oxopyrido[2,1-a] [2]benzazepine-4-carboxylic acid (which is a compound disclosed in Japanese Patent Publication-A No. 4-282382) was used as the control compound.

Row | IC50 [1] [nM] | IC50 [2] [nM] | Structure (SMILES)
1 | 4.3 | 2.5 | CC[C@H](C)[C@H](S)C(=O)N[C@H]1CC[C@H](C)[C@H]2SC[C@@H](C(=O)O)N2C1=O [Example 3, [3R-(3α,6α,9β,9aβ)]-6-[[(2S,3S)-1-Oxo-2-thio-3-methylpentyl]amino]-9-methyl-5-oxo-octahydrothiazolo[3,2-a]azepine-3-carboxylic acid]
2 | 13 | 5.1 | CC[C@H](C)[C@H](S)C(=O)N[C@H]1C[C@@H](C)C[C@H]2SC[C@@H](C(=O)O)N2C1=O [Example 9, [3R-(3α,6α,8α,9aβ)]-6-[[(2S,3S)-1-Oxo-2-thio-3-methylpentyl]amino]-8-methyl-octahydro-5-oxothiazolo[3,2-a]azepine-3-carboxylic acid]
3 | 12 | 4.3 | CC[C@H](C)[C@H](S)C(=O)N[C@H]1C[C@H](C)C[C@H]2SC[C@@H](C(=O)O)N2C1=O [Example 10, [3R-(3α,6α,8β,9aβ)]-6-[[(2S,3S)-1-Oxo-2-thio-3-methylpentyl]amino]-8-methyl-octahydro-5-oxothiazolo[3,2-a]azepine-3-carboxylic acid]
4 | 6.7 | 2.2 | CC[C@H](C)[C@H](S)C(=O)N[C@H]1CC[C@@H](C)[C@H]2SC[C@@H](C(=O)O)N2C1=O [Example 11, [3R-(3α,6α,9α,9aβ)]-6-[[(2S,3S)-1-Oxo-2-thio-3-methylpentyl]amino]-9-methyl-5-oxo-octahydrothiazolo[3,2-a]azepine-3-carboxylic acid]
5 | 1.5 | 2.5 | CC[C@H]1CC[C@H](NC(=O)[C@@H](S)[C@@H](C)CC)C(=O)N2[C@@H]1SC[C@H]2C(=O)O [Example 24, [3R-(3α,6α,9β,9aβ)]-6-[[(2S,3S)-1-Oxo-2-thio-3-methylpentyl]amino]-9-ethyl-5-oxo-octahydrothiazolo[3,2-a]azepine-3-carboxylic acid]
